Assay results taken from ChEMBL document CHEMBL1201862, “PubChem BioAssay data set” (2004).
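Assay format: 96-well plates, 48-hour exposure. GI50: concentration for 50% inhibition of growth.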 Activity calls are given as the source filed them. Cut-off read from the data, not from the text of the source: active = GI50 up to about 1.1 µM and inactive = higher.

Tests used:
Experiment in all cases: NCI anticancer screen, dose series, 48 h
786-0 = test system: 786-0
A549 = test system: A549
ACHN = test system: ACHN
CAKI-1 = test system: CAKI-1
CCRF-CEM = test system: CCRF-CEM
COLO 205 = test system: COLO 205
DU-145 = test system: DU-145
EKVX = test system: EKVX
HCT-116 = test system: HCT-116
HL-60 = test system: HL-60
HOP-62 = test system: HOP-62
HOP-92 = test system: HOP-92
HT-29 = test system: HT-29
Hs-578T = test system: Hs-578T
IGROV-1 = test system: IGROV-1
K562 = test system: K562
KM12 = test system: KM12
LOX IMVI = test system: LOX IMVI
M14 = test system: M14
MCF7 = test system: MCF7
MDA-MB-231 = test system: MDA-MB-231
MDA-MB-435 = test system: MDA-MB-435
MDA-N = test system: MDA-N
MOLT-4 = test system: MOLT-4
Malme-3M = test system: Malme-3M
NCI-H226 = test system: NCI-H226
NCI-H23 = test system: NCI-H23
NCI-H460 = test system: NCI-H460
NCI/ADR-RES = test system: NCI/ADR-RES
OVCAR-3 = test system: OVCAR-3
OVCAR-4 = test system: OVCAR-4
OVCAR-5 = test system: OVCAR-5
OVCAR-8 = test system: OVCAR-8
PC-3 = test system: PC-3
RPMI-8226 = test system: RPMI-8226
RXF 393 = test system: RXF 393
SF-268 = test system: SF-268
SF-295 = test system: SF-295
SF-539 = test system: SF-539
SK-MEL-28 = test system: SK-MEL-28
SK-MEL-5 = test system: SK-MEL-5
SK-OV-3 = test system: SK-OV-3
SN12C = test system: SN12C
SNB-19 = test system: SNB-19
SR = test system: SR
SW-620 = test system: SW-620
T47D = test system: T47D
TK-10 = test system: TK-10
UACC-257 = test system: UACC-257
UACC-62 = test system: UACC-62
UO-31 = test system: UO-31
A498 = test system: A498
HCC 2998 = test system: HCC 2998
HCT-15 = test system: HCT-15
NCI-H522 = test system: NCI-H522
SK-MEL-2 = test system: SK-MEL-2
SNB-75 = test system: SNB-75

O=C(OC1C2OC(=O)c3cc(O)c(O)c(O)c3Oc3cc4c(c(O)c3O)-c3c(cc(O)c(O)c3O)C(=O)OCC3OC(O)C(OC(=O)c5cc(O)c(O)c(O)c5Oc5cc6c(c(O)c5O)-c5c(cc(O)c(O)c5O)C(=O)OC1C(COC6=O)OC2O)C(OC(=O)c1cc(O)c(O)c(O)c1)C3OC4=O)c1cc(O)c(O)c(O)c1 (stereo not given)
GI50 (786-0): 21 µM (inactive) | GI50 (A549): 10.8 µM (inactive) | GI50 (ACHN): 38.9 µM (inactive) | GI50 (CAKI-1): 38.3 µM (inactive) | GI50 (CCRF-CEM): 3.61 µM (inactive) | GI50 (COLO 205): 5.87 µM (inactive) | GI50 (DU-145): 41 µM (inactive) | GI50 (EKVX): 12.5 µM (inactive) | GI50 (HCT-116): 16.4 µM (inactive) | GI50 (HL-60): 16.2 µM (inactive) | GI50 (HOP-62): 23.4 µM (inactive) | GI50 (HOP-92): 19 µM (inactive) | GI50 (HT-29): 17.9 µM (inactive) | GI50 (Hs-578T): 32.3 µM (inactive) | GI50 (IGROV-1): 40.2 µM (inactive) | GI50 (K562): 7.8 µM (inactive) | GI50 (KM12): 3.36 µM (inactive) | GI50 (LOX IMVI): 17.9 µM (inactive) | GI50 (M14): 35.2 µM (inactive) | GI50 (MCF7): 50.7 µM (inactive) | GI50 (MDA-MB-231): 19.6 µM (inactive) | GI50 (MDA-MB-435): 21.4 µM (inactive) | GI50 (MDA-N): 21.2 µM (inactive) | GI50 (MOLT-4): 3.46 µM (inactive) | GI50 (Malme-3M): > 100 µM (inactive) | GI50 (NCI-H226): 22.4 µM (inactive) | GI50 (NCI-H23): 24.6 µM (inactive) | GI50 (NCI-H460): 3.52 µM (inactive) | GI50 (NCI/ADR-RES): 58.2 µM (inactive) | GI50 (OVCAR-3): 25.8 µM (inactive) | GI50 (OVCAR-4): 17.8 µM (inactive) | GI50 (OVCAR-5): 40.1 µM (inactive) | GI50 (OVCAR-8): 27 µM (inactive) | GI50 (PC-3): 20 µM (inactive) | GI50 (RPMI-8226): 4.59 µM (inactive) | GI50 (RXF 393): 21.9 µM (inactive) | GI50 (SF-268): 26.4 µM (inactive) | GI50 (SF-295): 14.7 µM (inactive) | GI50 (SF-539): 24.4 µM (inactive) | GI50 (SK-MEL-28): 76.7 µM (inactive) | GI50 (SK-MEL-5): 53.8 µM (inactive) | GI50 (SK-OV-3): 12.5 µM (inactive) | GI50 (SN12C): 26.7 µM (inactive) | GI50 (SNB-19): 17.6 µM (inactive) | GI50 (SR): 4.61 µM (inactive) | GI50 (SW-620): 13.2 µM (inactive) | GI50 (T47D): > 100 µM (inactive) | GI50 (TK-10): 38.7 µM (inactive) | GI50 (UACC-257): 81.5 µM (inactive) | GI50 (UACC-62): 28.4 µM (inactive) | GI50 (UO-31): 4.8 µM (inactive)

CCOC(=O)C(=O)N1C(C)=C(C(=O)OCC)CC(C(=O)OCC)=C1C
GI50 (786-0): > 100 µM (inactive) | GI50 (A498): > 100 µM (inactive) | GI50 (A549): > 100 µM (inactive) | GI50 (ACHN): > 100 µM (inactive) | GI50 (CAKI-1): > 100 µM (inactive) | GI50 (CCRF-CEM): > 100 µM (inactive) | GI50 (COLO 205): > 100 µM (inactive) | GI50 (DU-145): > 100 µM (inactive) | GI50 (EKVX): > 100 µM (inactive) | GI50 (HCC 2998): > 100 µM (inactive) | GI50 (HCT-116): > 100 µM (inactive) | GI50 (HCT-15): > 100 µM | GI50 (HL-60): > 100 µM (inactive) | GI50 (HOP-62): > 100 µM (inactive) | GI50 (HOP-92): > 100 µM (inactive) | GI50 (Hs-578T): > 100 µM (inactive) | GI50 (IGROV-1): > 100 µM (inactive) | GI50 (K562): > 100 µM (inactive) | GI50 (KM12): > 100 µM (inactive) | GI50 (LOX IMVI): > 100 µM (inactive) | GI50 (M14): > 100 µM (inactive) | GI50 (MCF7): > 100 µM (inactive) | GI50 (MDA-MB-231): > 100 µM (inactive) | GI50 (MDA-MB-435): > 100 µM (inactive) | GI50 (MDA-N): > 100 µM (inactive) | GI50 (MOLT-4): > 100 µM (inactive) | GI50 (Malme-3M): > 100 µM (inactive) | GI50 (NCI-H23): > 100 µM (inactive) | GI50 (NCI-H460): > 100 µM (inactive) | GI50 (NCI-H522): > 100 µM (inactive) | GI50 (OVCAR-3): > 100 µM (inactive) | GI50 (OVCAR-4): > 100 µM (inactive) | GI50 (OVCAR-5): > 100 µM (inactive) | GI50 (PC-3): > 100 µM (inactive) | GI50 (RPMI-8226): > 100 µM (inactive) | GI50 (RXF 393): > 100 µM (inactive) | GI50 (SF-295): > 100 µM (inactive) | GI50 (SF-539): > 100 µM (inactive) | GI50 (SK-MEL-28): > 100 µM (inactive) | GI50 (SK-MEL-2): > 100 µM (inactive) | GI50 (SK-MEL-5): > 100 µM (inactive) | GI50 (SK-OV-3): > 100 µM (inactive) | GI50 (SN12C): > 100 µM (inactive) | GI50 (SNB-19): > 100 µM (inactive) | GI50 (SNB-75): 26.7 µM (inactive) | GI50 (SR): > 100 µM (inactive) | GI50 (SW-620): > 100 µM (inactive) | GI50 (T47D): > 100 µM (inactive) | GI50 (TK-10): > 100 µM (inactive) | GI50 (UACC-257): > 100 µM (inactive) | GI50 (UACC-62): > 100 µM (inactive) | GI50 (UO-31): > 100 µM (inactive)

S=C1Cc2c([nH]c3ccccc23)-c2ccccc2N1
GI50 (786-0): 31.3 µM (inactive) | GI50 (A549): 23 µM (inactive) | GI50 (ACHN): 23.6 µM (inactive) | GI50 (CAKI-1): 23.3 µM (inactive) | GI50 (CCRF-CEM): > 100 µM (inactive) | GI50 (COLO 205): > 100 µM (inactive) | GI50 (DU-145): 41.3 µM (inactive) | GI50 (EKVX): 40.4 µM (inactive) | GI50 (HCT-116): 25.1 µM (inactive) | GI50 (HL-60): > 100 µM (inactive) | GI50 (HOP-62): 25.9 µM (inactive) | GI50 (HOP-92): 32.3 µM (inactive) | GI50 (HT-29): > 100 µM (inactive) | GI50 (Hs-578T): 61 µM (inactive) | GI50 (IGROV-1): 65.3 µM (inactive) | GI50 (K562): 47.5 µM (inactive) | GI50 (KM12): > 100 µM (inactive) | GI50 (LOX IMVI): 75.2 µM (inactive) | GI50 (M14): > 100 µM (inactive) | GI50 (MCF7): > 100 µM (inactive) | GI50 (MDA-MB-231): 42.9 µM (inactive) | GI50 (MDA-MB-435): > 100 µM (inactive) | GI50 (MDA-N): 96.8 µM (inactive) | GI50 (MOLT-4): 23.6 µM (inactive) | GI50 (Malme-3M): 69.2 µM (inactive) | GI50 (NCI-H226): 29.5 µM (inactive) | GI50 (NCI-H23): 79.1 µM (inactive) | GI50 (NCI-H460): 35.4 µM (inactive) | GI50 (NCI/ADR-RES): 50 µM (inactive) | GI50 (OVCAR-3): 32.6 µM (inactive) | GI50 (OVCAR-4): > 100 µM (inactive) | GI50 (OVCAR-5): > 100 µM (inactive) | GI50 (OVCAR-8): 38.3 µM (inactive) | GI50 (PC-3): 21.5 µM (inactive) | GI50 (RPMI-8226): > 100 µM (inactive) | GI50 (RXF 393): 18.3 µM (inactive) | GI50 (SF-268): 34.4 µM (inactive) | GI50 (SF-295): 98.6 µM (inactive) | GI50 (SF-539): 43.6 µM (inactive) | GI50 (SK-MEL-28): > 100 µM (inactive) | GI50 (SK-MEL-5): 42 µM (inactive) | GI50 (SK-OV-3): 24.2 µM (inactive) | GI50 (SN12C): 38.6 µM (inactive) | GI50 (SNB-19): 34.4 µM (inactive) | GI50 (SNB-75): 26.2 µM (inactive) | GI50 (SR): 42 µM (inactive) | GI50 (SW-620): > 100 µM (inactive) | GI50 (T47D): > 100 µM (inactive) | GI50 (TK-10): 21.5 µM (inactive) | GI50 (UACC-257): 55 µM (inactive) | GI50 (UACC-62): 72.3 µM (inactive) | GI50 (UO-31): 19.1 µM (inactive)
